Results taken from patent US12577267B2, “Pyrimidine compounds for use as MAP4K1 inhibitors” (GLENMARK SPECIALITY S.A., priority 2021, dated 2026).
Counter-ions that a name gives are not always drawn.

Biological target: MAP4K-1 enzyme (Homo sapiens, UniProt Q92918)
Assay: FRET one step binding assay (tracer displacement)
Conditions: for inhibition at 1 µM: 1 μM compound; for inhibition at 10 µM: 10 μM compound; for IC50: IC50 (nM)
Method in brief: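 TR-FRET tracer-displacement binding with 5 nM GST-tagged MAP4K-1 and 2 nM Eu-anti-GST antibody in 50 mM HEPES pH 7.5, 10 mM MgCl2, 1 mM EGTA, 0.01% Brij-35, 3% DMSO final. Compound pre-incubated 15 min on ice, then 1 h at room temperature after tracer addition. IC50 from nonlinear regression of percent-of-control dose-response.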

Chain of MAP4K-1 enzyme (Q92918 whole entry): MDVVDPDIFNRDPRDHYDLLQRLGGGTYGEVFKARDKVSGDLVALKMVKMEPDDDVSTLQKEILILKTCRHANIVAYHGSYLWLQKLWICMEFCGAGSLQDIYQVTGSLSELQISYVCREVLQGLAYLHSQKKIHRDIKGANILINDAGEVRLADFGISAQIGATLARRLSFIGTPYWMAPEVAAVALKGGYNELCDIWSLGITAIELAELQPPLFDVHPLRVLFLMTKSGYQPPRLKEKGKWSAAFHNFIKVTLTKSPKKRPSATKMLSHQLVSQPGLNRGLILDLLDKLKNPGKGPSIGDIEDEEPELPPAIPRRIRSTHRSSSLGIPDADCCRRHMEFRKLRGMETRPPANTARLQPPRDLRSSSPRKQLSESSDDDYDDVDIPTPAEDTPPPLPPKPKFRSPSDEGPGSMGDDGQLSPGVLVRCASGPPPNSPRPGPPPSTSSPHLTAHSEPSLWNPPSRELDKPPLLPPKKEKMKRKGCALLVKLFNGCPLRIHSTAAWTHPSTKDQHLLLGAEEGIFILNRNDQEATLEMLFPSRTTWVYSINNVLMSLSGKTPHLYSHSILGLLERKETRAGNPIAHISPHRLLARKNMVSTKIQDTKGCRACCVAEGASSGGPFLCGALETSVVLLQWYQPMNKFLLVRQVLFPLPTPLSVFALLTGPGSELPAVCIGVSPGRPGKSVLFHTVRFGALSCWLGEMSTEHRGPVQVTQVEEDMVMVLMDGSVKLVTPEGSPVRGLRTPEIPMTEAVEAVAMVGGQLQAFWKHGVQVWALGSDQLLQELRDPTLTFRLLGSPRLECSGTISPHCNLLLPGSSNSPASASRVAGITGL

| Compound | inhibition at 1 µM [%] | inhibition at 10 µM [%] | IC50 [nM] |
| --- | --- | --- | --- |
| Cn1nc(Nc2ncc(Cl)c(Nc3ccc(OS(=O)(=O)F)cc3P(C)(C)=O)n2)c2c1CNC2 [Example 41, 4-((5-Chloro-2-((1-methyl-1,4,5,6-tetrahydropyrrolo[3,4-c]pyrazol-3-yl)amino)pyrimidin-4-yl)amino)-3-(dimethylphosphoryl)phenyl sulfofluoridate hydrochloride] | 90.4 | 85 | < 50 |
| COc1cc2c(cc1Nc1ncc(Cl)c(Nc3ccc(N(C)S(=O)(=O)F)cc3P(C)(C)=O)n1)C(C)N(C)CC2 (racemic) [Example 44, ±(4-((5-Chloro-2-((6-methoxy-1,2-dimethyl-1,2,3,4-tetrahydroisoquinolin-7-yl)amino)pyrimidin-4-yl)amino)-3-dimethylphosphoryl)phenyl) (methyl)sulfamoylfluoride dihydrochloride] | 81.6 | 79.6 | < 50 |
| COc1cc2c(cc1Nc1ncc(Cl)c(Nc3ccc(OS(=O)(=O)F)cc3P(C)(C)=O)n1)CN(C)C(C)C2 (single isomer, unassigned; isomer 1) [Example 33, 4-((5-Chloro-2-((6-methoxy-2,3-dimethyl-1,2,3,4-tetrahydroisoquinolin-7-yl)amino)pyrimidin-4-yl)amino)-3-(dimethylphosphoryl)phenyl sulfofluoridate dihydrochloride (Isomer 1)] | 92.8 | 87.8 | < 50 |
